From patent US9453192B2, “High-acidity vinegar and method for producing the same” (priority 2012, dated 2016)
Like-named read-outs stand apart in the source and are kept apart here.

Experiments:
[1] = system: Acetobacter altoacetigenes MH-24 (FERM BP-491)
Source text: (§1) The present invention relates to a method for producing a high-acidity vinegar having acidity of 10% to 25%, particularly 15% to 25% by brewing, i.e., acetic acid fermentation. In general, the acidity of vinegar means the concentration of acetic acid (w/v %) in the vinegar. The acidity referred to herein means the acetic acid concentration determined by conducting neutralization titration of the sample (vinegar) with phenolphthalein as an indicator and 1N sodium hydroxide aqueous solution in the manner known to persons skilled in the art.
(§2) A culture solution (2.5 L) containing acetic acid (8 w/v %), ethanol (2 v/v %), Acetozym DS+2 (product of FRINGS; 0.15 w/v %), and a variety of additives at given concentrations was introduced into a 5 L-volume jar fermenter. The total nitrogen content of the culture solution was 0.006 w/v %. Cryopreserved Acetobacter altoacetigenes MH-24 (FERM BP-491) was inoculated into the culture solution to start acetic acid fermentation. Submerged fermentation involving aeration stirring was adopted for the fermentation. Fermentation was conducted under the conditions of a temperature at 30° C., a rotative speed of 600 rpm, and an aeration volume of 0.15 vvm.
(§3) After the start of fermentation, 95% ethanol was fed to the fermentation liquid until the acidity (acetic acid concentration: w/v %) of the fermentation liquid exceeded 15% so as to maintain the ethanol concentration in the fermentation liquid at 1.5 to 3 v/v %. At the time point at which the acidity exceeded 15% (approximately 15.5%) and the ethanol concentration reached about 0.5 v/v %, the fermentation liquid was pulled out such that approximately half of the total fermentation liquid volume is remained.
After the portion of the fermentation liquid was pulled out, the above components were added again without discontinuation of aeration and stirring of the remaining fermentation liquid such that the volume of the fermentation liquid was adjusted to 2.5 L and the composition of the fermentation liquid became equivalent to the composition of the original culture solution. Then, fermentation was continued in the above manner. Thereafter the cycle, in which fermentation was conducted until the acidity exceeded 15% (approximately 15.5%), approximately half of the total volume of the fermentation liquid was pulled out and the above components were added again to restart fermentation with decreased acidity, is repeated to conduct semi-continuous fermentation. Seven times repeats of the cycle from the start of fermentation to re-introduction of the components was regarded as one examination. Six examinations were conducted with each different condition of additives. […]

[2] = system: Acetobacter altoacetigenes MH-24 (FERM BP-491); test: Semi-continuous acetic acid fermentation, culture solution with Acetozym DS+2 and additives (Example 1); type: cell-based; details: for Final acidity: acidity when a portion of the fermentation liquid was pulled out; for Fermentation time: average time of one cycle (2nd to 7th cycles) until acidity exceeded 15%; for Productivity: rate of increase in acidity per hour
Source text: as §1, §2, §3
After the portion of the fermentation liquid was pulled out, the above components were added again without discontinuation of aeration and stirring of the remaining fermentation liquid such that the volume of the fermentation liquid was adjusted to 2.5 L and the composition of the fermentation liquid became equivalent to the composition of the original culture solution. Then, fermentation was continued in the above manner. Thereafter the cycle, in which fermentation was conducted until the acidity exceeded 15% (approximately 15.5%), approximately half of the total volume of the fermentation liquid was pulled out and the above components were added again to restart fermentation with decreased acidity, is repeated to conduct semi-continuous fermentation. Seven times repeats of the cycle from the start of fermentation to re-introduction of the components was regarded as one examination. Six examinations were conducted with each different condition of additives. Table 1 summarizes the average time duration required for one cycle, i.e., from the restart of fermentation to the time point at which the acidity exceeded 15%, (the average time of 2nd to 7th cycles), final acidity (acidity when a portion of the fermentation liquid was pulled out), and productivity (the rate of increase in acidity per hour) with the types and amounts of additives.

[3] = Glutathione 220 μM, 4 cycle repetitions

## N[C@@H](CCC(=O)N[C@@H](CS)C(=O)NCC(=O)O)C(=O)O [Glutathione]
[1]; [3]
  Fermentation time: 51.3 h
  Final acidity: 15.4%
[1]; Glutathione 220 μM, 4 cycle repetitions, rate of increase in acidity per hour
  Productivity: 0.144 %/h
[1]; Glutathione used as additive (220 μM), versus no additive
  Effect on productivity: productivity was significantly improved

## N[C@@H](CSSC[C@H](N)C(=O)O)C(=O)O [L-cystine]
[2]; L-cystine 18 μM
  Final acidity: 15.4%
  Fermentation time: 48.9 h
  Productivity: 0.151 %/h
[2]; L-cystine 45 μM
  Final acidity: 15.3%
  Fermentation time: 41.7 h
  Productivity: 0.175 %/h
[2]; L-cystine 90 μM
  Final acidity: 15.3%
  Fermentation time: 37.5 h
  Productivity: 0.195 %/h
[2]; L-cystine alone, 18 μM (Exam 2)
  Effect on productivity as compared with Exam 1 (no additive): effect of improving productivity was confirmed
